The values that follow come from ChEMBL document CHEMBL1201862, “PubChem BioAssay data set” (2004).

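The compound was tested at five concentrations on cells cultured in 96-well plates, with a 48-hour exposure period. Abbreviation: GI50, concentration required for 50% inhibition of growth.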 Activity calls are given as the source filed them. No stated cut-off is given here; in the data, active = GI50 up to about 1.1 µM and inactive = higher. Some results are limits rather than exact numbers.

Holding throughout (experiment): NCI anticancer screen, dose series, 48 h
The test system of assay [1] is A498.
For assay [2], the system named is COLO 205.
Assay [3] has as its system HCC 2998.
Assay [4] relates to HOP-62.
Assay [5] has as its system Hs-578T.
The test system of assay [6] is LOX IMVI.
Assay [7] relates to M14.
The subject of assay [8] is MDA-MB-231.
Assay [9] has as its system MOLT-4.
For assay [10], the system named is OVCAR-3.
The subject of assay [11] is OVCAR-8.
Assay [12] relates to PC-3.
Assay [13] deals with RPMI-8226.
Assay [14] deals with SF-268.
In assay [15] the test system is SF-539.
Assay [16] has as its system SK-MEL-28.
The test system of assay [17] is UO-31.
Assay [18] has as its system MDA-N.
Assay [19] has as its system RXF 393.

Regarding `COc1ccc(CC2C(=O)NC(C)C(=O)N(C)C3C(=O)N(C)C(Cc4ccc(O)c(c4)Oc4ccc(cc4)C3O)C(=O)NC(C)C(=O)NC(C)C(=O)N2C)cc1.COc1ccc(CC2C(=O)NC(C)C(=O)N(C)C3Cc4ccc(cc4)Oc4cc(ccc4O)CC(C(=O)NC(C)C(=O)NC(C)C(=O)N2C)N(C)C3=O)cc1` (configuration not stated), the GI50 in assay [1] was 0.0282 µM (active); in assay [2], 0.03 µM (active); in [3], 0.00619 µM (active); in assay [4], 0.0552 µM (active); in [5] it was 0.01 µM (active); in assay [6], 0.00237 µM (active). In addition, the GI50 in assay [7] was 0.00582 µM (active); in assay [8], 0.0115 µM (active); in assay [9], 0.01 µM (active); in assay [10], 0.01 µM (active); in [11], 0.0128 µM (active); in assay [12] it was 0.00601 µM (active). Also, the GI50 is 0.0019 µM (active) in assay [13]; 0.00316 µM (active) in assay [14]; 0.00102 µM (active) in assay [15]; 0.00344 µM (active) in [16]; 0.136 µM (active) in assay [17].

As for `O=c1[nH]nc(Cc2ccc(Cl)cc2)n1/N=C/c1cccs1`, the GI50 was 29.1 µM (inactive) in assay [1]; > 100 µM (inactive) in [2]; > 100 µM (inactive) in assay [3]; 22.1 µM (inactive) in [4]; > 100 µM (inactive) in assay [7]; 21.3 µM (inactive) in assay [8]. In addition, the GI50 in assay [18] is > 100 µM (inactive); in [9] it was > 100 µM (inactive); in [10], > 100 µM (inactive); in assay [11], 27.5 µM (inactive); in assay [12] it was > 100 µM (inactive); in assay [13] it was > 100 µM (inactive). In addition, the GI50 in assay [19] was 15.5 µM (inactive); in assay [14], 15.9 µM (inactive); in [15] it was 41.3 µM (inactive); in [16] it was > 100 µM (inactive); in assay [17] it was 46.2 µM (inactive).

Turning to `N#C/C(=C\c1cc(Br)c(O)c(Br)c1)c1ccccn1`, the GI50 in [2] is 52.4 µM (inactive); in assay [3] it was 42.9 µM (inactive); in [4], 53.2 µM (inactive); in assay [7], 72.8 µM (inactive); in assay [18], > 100 µM (inactive); in assay [9], 32.5 µM (inactive). In addition, the GI50 is 49.3 µM (inactive) in [10]; 94.8 µM (inactive) in assay [11]; 29.1 µM (inactive) in assay [12]; 73.5 µM (inactive) in assay [13]; 91.4 µM (inactive) in assay [19]; 93.8 µM (inactive) in assay [14]. Besides, the GI50 in [15] is 84.7 µM (inactive); in [16], 82 µM (inactive); in assay [17], 35.9 µM (inactive).

For `CC1(C)C(=O)C=CC2(C)C1CC(O)C1(C)C2CCC2(C)C(c3ccoc3)OC(=O)C3OC321` (configuration not stated), the GI50 in [1] was 15.3 µM (inactive); in assay [2], 21.5 µM (inactive); in assay [3] it was 13.4 µM (inactive); in assay [4], 24.4 µM (inactive); in assay [6], 15.7 µM (inactive); in [7], 32 µM (inactive). Besides, the GI50 in [8] was 15.8 µM (inactive); in assay [18] it was 18.1 µM (inactive); in [9] it was 5.87 µM (inactive); in assay [10], 13.9 µM (inactive); in [11], 13.3 µM (inactive); in assay [12] it was 31.6 µM (inactive). The GI50 in [13] was 18.5 µM (inactive); in assay [19], 15 µM (inactive); in assay [15], > 10 µM (inactive); in assay [16], 24.8 µM (inactive); in [17] it was 11.4 µM (inactive).

As for `N=C(N)SCc1nc(-c2ccc(Cl)cc2)no1`, the GI50 in assay [1] was 16.8 µM (inactive); in [2] it was 14.6 µM (inactive); in [4] it was 27.3 µM (inactive); in assay [5], 42 µM (inactive); in assay [6] it was 14.7 µM (inactive); in assay [7], 16.8 µM (inactive). In addition, the GI50 is 12.6 µM (inactive) in assay [8]; 3.56 µM (inactive) in assay [9]; 11.9 µM (inactive) in assay [10]; 30.1 µM (inactive) in assay [11]; 14 µM (inactive) in assay [12]; 5.05 µM (inactive) in assay [13]. The GI50 in [19] is 12.1 µM (inactive); in [14], 19.3 µM (inactive); in assay [15], 15.8 µM (inactive); in [16], 16.9 µM (inactive).

As for `O=C(c1cccc2ccccc12)C1S(=O)(=O)OCCOS1(=O)=O`, the GI50 in assay [2], in [3], in assay [4], in assay [7], in assay [8] and in assay [18] was > 100 µM (inactive) in each case. For the same compound, the GI50 in assay [9], in assay [10], in assay [11], in assay [12], in assay [13] and in assay [16] was > 100 µM (inactive) each time. Moreover, in [17], the GI50 is > 100 µM (inactive).

On to `COc1cc(NC(C)=O)ccc1C(=O)NN1C(=O)C(Cl)C1c1ccco1` (configuration not stated), for which the GI50 in assay [1] was > 100 µM (inactive); in [2], 61.8 µM (inactive); in assay [6], 75.2 µM (inactive); in assay [7], > 100 µM (inactive); in [18] it was > 100 µM (inactive); in assay [9], 31.9 µM (inactive). In addition, the GI50 in assay [10] is > 100 µM (inactive); in assay [11] it was 87.3 µM (inactive); in assay [12], > 100 µM (inactive); in [13], > 100 µM (inactive); in [19], > 100 µM (inactive); in [14], > 100 µM (inactive). Further, the GI50 in assay [15], in assay [16] and in [17] was > 100 µM (inactive) throughout.

As for `O=c1s[s+]([O-])c2ccccc12` (configuration not stated), the GI50 was > 100 µM (inactive) in assay [1]; > 100 µM (inactive) in [2]; > 100 µM (inactive) in assay [3]; > 100 µM (inactive) in assay [4]; 58.3 µM (inactive) in assay [6]; > 100 µM (inactive) in assay [7]. Further, the GI50 in assay [8], in assay [18], in assay [9], in [10], in assay [11] and in assay [12] was > 100 µM (inactive) each time. Further, the GI50 in assay [13] was 62.1 µM (inactive); in assay [15], > 100 µM (inactive); in [16] it was > 100 µM (inactive); in assay [17], > 100 µM (inactive).

With `COC(=O)c1c[nH]c2nc(N3CCOCC3)nn2c1=O`, the GI50 in assay [1], in assay [2], in [3], in assay [4], in [6] and in [7] was > 100 µM (inactive) in each case. The GI50 in assay [9], in assay [10], in assay [11], in assay [13], in assay [19] and in assay [14] was > 100 µM (inactive) throughout. Besides, the GI50 in assay [15], in [16] and in assay [17] was > 100 µM (inactive) in each case.

In the case of `CCOP(=O)(/C=C/n1ccc(=O)[nH]c1=O)OCC`, the GI50 in [1], in assay [2], in [4], in assay [6], in assay [7] and in assay [8] was > 100 µM (inactive) in each case. Also, the GI50 in assay [18], in assay [9], in assay [10], in assay [11], in assay [12] and in assay [13] was > 100 µM (inactive) in each case. The GI50 in assay [19], in assay [14], in assay [15] and in [16] was > 100 µM (inactive) each time.

On to `CC1(C)OC[C@@H]([C@H](O)C2C=CC(=O)S2)O1` (some centres not stated), for which the GI50 in [1] is 21.4 µM (inactive); in assay [2], 17.9 µM (inactive); in assay [3], 16.6 µM (inactive); in assay [4], 47.9 µM (inactive); in [6], 15.7 µM (inactive); in assay [7], 44.3 µM (inactive). Moreover, the GI50 in [8] was 30.8 µM (inactive); in [18], 22.1 µM (inactive); in [9], 32 µM (inactive); in assay [10] it was 50.5 µM (inactive); in assay [11], 21.2 µM (inactive); in assay [12], 34 µM (inactive). The GI50 in assay [13] is 18.4 µM (inactive); in assay [19] it was 15 µM (inactive); in assay [14], 15.5 µM (inactive); in assay [15], 27.4 µM (inactive); in assay [17] it was 20.8 µM (inactive).

For `Nc1ccc(S(=O)(=O)Nc2nccs2)cc1` [SULFATHIAZOLE], the GI50 in [1], in assay [2], in assay [3], in [4], in assay [6] and in assay [7] was > 100 µM (inactive) each time. In addition, the GI50 in assay [8], in [18], in [9], in assay [10], in assay [11] and in [12] was > 100 µM (inactive) each time. In addition, the GI50 in assay [13], in [19], in assay [14], in [15], in assay [16] and in [17] was > 100 µM (inactive) each time.
